In PMC10398685 (ACS Omega, 2023):
Read-outs that look alike come from different tables or passages of the source.

Experiments:
[1] = target: SARS-CoV-2 nsp14 7-N MTase (Severe acute respiratory syndrome coronavirus 2, UniProt P0DTD1); assay: biochemical; conditions: Echo MS assay, 20 nM nsp14, 4 μM SAM, 4 μM GpppA, duplicates
SARS-CoV-2 [2] = assay: microbe, parasite or virus in culture; assay type: cell-based; conditions: Severe acute respiratory syndrome coronavirus 2, Vero C1008, 72 h; VeroE6 cells, MOI~0.03, 3 days incubation, CPE by XTT; read-out: EC50 (anti-SARS-CoV-2 activity)
in vitro [3] = conditions: African green monkey
in vitro [4] = conditions: human
SARS-CoV-2 [5] = assay: microbe, parasite or virus in culture; assay type: cell-based; conditions: Severe acute respiratory syndrome coronavirus 2, 72 h; Calu-3 cells, MOI~0.03, 3 days incubation, CPE by XTT; read-out: EC50 (anti-SARS-CoV-2 activity)
[6] = in the same cell type; cited from earlier work
[7] = Cytotoxicity (XTT) in Calu-3 cells; conditions: human
[8] = Cytotoxicity (XTT) in Vero E6 cells; conditions: African green monkey

Row | SMILES | IC50 [1] [µM] | EC50 (SARS-CoV-2 [2]) [µM] | CC50 at 3 days (in vitro [3]) [µM] | CC50 at 3 days (in vitro [4]) [µM] | EC50 (SARS-CoV-2 [5]) [µM] | Reported intracellular uptake, free tenofovir [6] [µM] | Reported intracellular uptake, prodrug [6] [µM] | CC50 at 3 days [7] [µM] | CC50 at 3 days [8] [µM]
1 | CCN(C[C@H]1O[C@@H](n2cc(C#Cc3cncnc3)c3c(N)ncnc32)[C@H](O)[C@@H]1O)S(=O)(=O)c1ccc(OC)c(C#N)c1 [Compound 12m] | 0.051 ± 0.0062 | > 100 | > 100 | > 100 | > 100 |  |  |  | 
2 | CCN(C[C@H]1O[C@@H](n2cc(C#Cc3cccc4ccccc34)c3c(N)ncnc32)[C@H](O)[C@@H]1O)S(=O)(=O)c1ccc(OC)c(C#N)c1 [Compound 12d] | 0.261 ± 0.0516 | > 100 | > 100 | > 100 | > 100 |  |  |  | 
3 | CCN(C[C@H]1O[C@@H](n2cc(C#Cc3cnc(O)nc3)c3c(N)ncnc32)[C@H](O)[C@@H]1O)S(=O)(=O)c1ccc(OC)c(C#N)c1 [Compound 12g] | 0.075 ± 0.0083 | > 100 | > 100 | > 100 | > 100 |  |  |  | 
4 | CCN(C[C@H]1O[C@@H](n2cc(C#Cc3cnc(N)nc3)c3c(N)ncnc32)[C@H](O)[C@@H]1O)S(=O)(=O)c1ccc(OC)c(C#N)c1 [Compound 12i] | 0.038 ± 0.0042 | > 100 | > 100 | > 100 | > 100 |  |  |  | 
5 | COc1ccc(S(=O)(=O)N(C)C[C@H]2O[C@@H](n3cnc4c(N)ncnc43)[C@H](O)[C@@H]2O)cc1C#N [Compound 3b] | 0.128 ± 0.0144 |  |  |  |  |  |  |  | 
6 | CCN(C[C@H]1O[C@@H](n2cc(C#Cc3ccc(C(=O)O)cc3)c3c(N)ncnc32)[C@H](O)[C@@H]1O)S(=O)(=O)c1ccc(OC)c(C#N)c1 [Compound 12p] | 0.084 ± 0.0094 | > 100 | > 100 | > 100 | > 100 |  |  |  | 
7 | CCN(C[C@H]1O[C@@H](n2cc(C#Cc3ccc(O)nc3)c3c(N)ncnc32)[C@H](O)[C@@H]1O)S(=O)(=O)c1ccc(OC)c(C#N)c1 [Compound 12f] | 0.065 ± 0.0092 | > 100 | > 100 | > 100 | > 100 |  |  |  | 
8 | CCN(C[C@H]1O[C@@H](n2cc(C#Cc3ccccc3)c3c(N)ncnc32)[C@H](O)[C@@H]1O)S(=O)(=O)c1ccc(OC)c(C#N)c1 [Compound 12c] | 0.062 ± 0.0124 | > 100 | > 100 | > 100 | > 100 |  |  |  | 
9 | CCN(C[C@H]1O[C@@H](n2cc(C#Cc3ccncc3)c3c(N)ncnc32)[C@H](O)[C@@H]1O)S(=O)(=O)c1ccc(OC)c(C#N)c1 [Compound 12n] | 0.041 ± 0.0071 | > 100 | > 100 | > 100 | > 100 |  |  |  | 
10 | CCN(C[C@H]1O[C@@H](n2cnc3c(N)ncnc32)[C@H](O)[C@@H]1O)S(=O)(=O)c1ccc(OC)c(C#N)c1 [Compound 3a, reference compound] | 0.195 ± 0.0253 | > 100 | > 100 | > 100 | > 100 |  |  |  | 
11 | COc1ccc(S(=O)(=O)N(C[C@H]2O[C@@H](n3cnc4c(N)ncnc43)[C@H](O)[C@@H]2O)C2CCCC2)cc1C#N [Compound 3d] | 2.38 ± 0.278 |  |  |  |  |  |  |  | 
12 | COc1ccc(S(=O)(=O)N(C[C@H]2O[C@@H](n3cnc4c(N)ncnc43)[C@H](O)[C@@H]2O)C(C)C)cc1C#N [Compound 3c] | 0.624 ± 0.0891 |  |  |  |  |  |  |  | 
13 | CCN(C[C@H]1O[C@@H](n2cc(C#Cc3ncc[nH]3)c3c(N)ncnc32)[C@H](O)[C@@H]1O)S(=O)(=O)c1ccc(OC)c(C#N)c1 [Compound 12b] | 0.034 ± 0.0049 | > 100 | > 100 | > 100 | > 100 |  |  |  | 
14 | CCN(C[C@H]1O[C@@H](n2cc(C#Cc3c[nH]c(=O)nc3N)c3c(N)ncnc32)[C@H](O)[C@@H]1O)S(=O)(=O)c1ccc(OC)c(C#N)c1 [Compound 12k] | 0.088 ± 0.0112 | > 100 | > 100 | > 100 | > 100 |  |  |  | 
15 | CC(C)OC(=O)[C@H](C)N[P@](=O)(CO[C@H](C)Cn1cnc2c(N)ncnc21)Oc1ccccc1 [tenofovir alafenamide] |  |  |  |  |  | 67 | 0.9 |  | 
16 | CCC(CC)COC(=O)[C@H](C)N[P@](=O)(OC[C@H]1O[C@@](C#N)(c2ccc3c(N)ncnn23)[C@H](O)[C@@H]1O)Oc1ccccc1 [Remdesivir, reference compound] |  | 1.2 |  |  | 0.26 |  |  | > 50 | > 50
17 | Nc1ncnc2c1c(C#Cc1cnc3ccccc3c1)cn2[C@@H]1O[C@H](CSCC[C@H](N)C(=O)O)[C@@H](O)[C@H]1O [TO507, reference compound] | 0.068 ± 0.0121 | > 100 | > 100 | > 100 | > 100 |  |  |  | 
18 | CCN(C[C@H]1O[C@@H](n2cc(C#Cc3c[nH]c(=O)[nH]c3=O)c3c(N)ncnc32)[C@H](O)[C@@H]1O)S(=O)(=O)c1ccc(OC)c(C#N)c1 [Compound 12j] | 0.07 ± 0.0081 | > 100 | > 100 | > 100 | > 100 |  |  |  | 
